One assay deals with T1, TAK1-TAB1 fusion protein (Homo sapiens, UniProt O43318).
T1 construct: purchased Upstate 14-600
T1 sequence (O43318 with tags, fused parts or gaps limits assumed): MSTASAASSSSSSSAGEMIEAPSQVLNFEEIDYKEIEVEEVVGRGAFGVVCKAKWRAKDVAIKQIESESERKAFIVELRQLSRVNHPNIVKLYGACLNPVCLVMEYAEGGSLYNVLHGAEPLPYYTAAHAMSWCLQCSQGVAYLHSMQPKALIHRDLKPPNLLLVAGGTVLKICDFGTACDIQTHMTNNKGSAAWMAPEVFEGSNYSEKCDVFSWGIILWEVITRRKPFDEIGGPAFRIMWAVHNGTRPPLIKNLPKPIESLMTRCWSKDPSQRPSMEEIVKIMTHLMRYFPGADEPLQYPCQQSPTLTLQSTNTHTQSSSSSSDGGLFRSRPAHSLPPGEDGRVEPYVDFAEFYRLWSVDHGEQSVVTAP
Description: In vitro TAK1 kinase assay (33P-ATP, casein substrate). The following applies: semi-quantitative score, at least two independent experiments. In kind it is biochemical. On the procedure: For assessing TAK1 inhibition, active TAK1-TAB1 fusion protein was used from Upstate (Cat. No, 14-600). Kinase reactions are set up in 96-well polypropylene plates in 25 μL containing 0.5 mU TAK1-TAB1 fusion protein, […], 0.01 μCi/μL [^33P]-γ-ATP, 0.1 mg/mL casein substrate in 1× reaction buffer containing 10 mM MOPS pH 7.0, 1 mM EDTA.
Starting from the compound master stocks (all at 10 mM concentration in 100% DMSO) a 3-fold serial dilution is made in 96-well plates in 100% DMSO. Plates are further diluted […] in H2O containing 3.5% DMSO, to obtain an intermediate work stock with compounds at 5× the final assay concentration in 5% DMSO.
5 μL of the intermediate stock is transferred into V-bottom 96 well polypropylene plates and 11 μL of Enzyme mix is added. Enzyme mix is made by combining 5 μL 5× reaction buffer ([…] pH 7.0, 1 mM EDTA), 5 μL casein (Sigma) diluted in H2O to 0.5 mg/mL and 1 μL of TAK1-TAB1 fusion protein that was prediluted to 0.5 mU/μL in 1× enzyme dilution buffer (20 mM MOPS pH 7.0, 0.1 mM EDTA, 0.01% Brij-35, 5% glycerol, 1 mM DTT, 1 mg/ml BSA).
The reactions are started by the addition of 9 μL of mixture containing ATP (20.83 uM) and [^33P]-γ-ATP (0.028 μCi/μL).
The assay is stopped 90 minutes after incubation at 30° C. by the addition of 25 μL phosphoric acid (150 mM). The label incorporated into the casein substrate is separated from labeled unincorporated ATP by filtration onto 96-well filter plates using a harvester device. After 6 washes with 75 mM phosphoric acid, the bottom of the filter plates are sealed, and incorporated label is quantified after addition of 40 μL scintillation fluid using TopCount.
Based on these percent inhibition data obtained in at least two independent experiments for the compounds, compounds are ranked using semi-quantitative scores. Table A below lists a number of compounds which have been or can be prepared according to the synthetic methods described herein. Semi-quantitative score: • *>3001 nM • ** 1001-3000 nM • *** 101-1000 nM • ****<100 nM

Assay [1] has as its system MMP1 expression from activated SFs (RASF). Description: MMP assay: MMP1 expression (ELISA) by TNF-α-triggered RASFs. The assay is classed as cell-based. The settings on record: RASF triggered with TNFα, MMP1 ELISA after 48 hrs, semi-quantitative score. How it is done: A 384-well format ELISA for measurement of MMP1 is developed. Various primary antibodies are tested, as well as various ELISA protocols. The following protocol is developed and validated to measure MMP1 levels in SF supernatant in 384 well plates: white Lumitrac 600 384 well plates (Greiner) are coated with 2 μg/mL anti-MMP1 antibody MAB1346 (Chemicon). The antibody is diluted in buffer 40 (1.21 g Tris base (Sigma), 0.58 g NaCl (Calbiochem) and 5 mL 10% NaN3 (Sigma) in 1 L milliQ water and adjusted to pH 8.5). After overnight incubation at 4° C., plates are washed with PBS (80 g NaCl, 2 g KCl (Sigma), 11.5 g Na2HPO4.7H2O and 2 g KH2PO4 in 10 L milliQ; pH 7.4) and blocked with 100 μL/well Casein buffer (2% Casein (VWR International) in PBS). Next day, casein buffer is removed from ELISA plates and replaced by 50 μL/well EC buffer (4 g casein, 2.13 g Na2HPO4 (Sigma), 2 g bovine albumin (Sigma), 0.69 g NaH2PO4.H2O (Sigma), 0.5 g CHAPS (Roche), 23.3 g NaCl, 4 mL 0.5 M EDTA pH 8 (Invitrogen), 5 mL 10% NaN3 in 1 L milliQ and adjusted to pH 7.0). 0.25 mM DTT (Sigma) is added to the thawed sample plates. After removal of the EC buffer, 20 μL of sample is transferred to the ELISA plates. After overnight incubation at 4° C. plates are washed twice with PBS and once with PBST (PBS with 0.05% Tween-20 (Sigma)) and incubated with 35 μL/well biotinylated anti-MMP1 antibody solution (R&D). This secondary antibody is diluted in buffer C (0.82 g NaH2PO4.H2O, 4.82 g Na2HPO4, 46.6 g NaCl, 20 g bovine albumin and 4 ml, 0.5M EDTA pH 8 in 2 L milliQ and adjusted to pH 7.0) at a concentration of 5 μg/mL. After 2 h of incubation at RT, plates are washed as described above and incubated with 50 μL/well streptavidin-HRP conjugate (Biosource). Streptavidin-HRP conjugate is diluted in buffer C at a concentration of 0.25 μg/mL. After 45 min, plates are washed as described above and incubated for 5 min with 50 μL/well BM Chem ELISA Substrate (Roche). Readout is performed on the Luminoscan Ascent Luminometer (Labsystems) with an integration time of 200 msec or with an Envision reader (Perkin Elmer).
SFs were acquired at passage 1 from a commercial supplier (Cell applications, Inc.). SFs are cultured in DMEM supplemented with 10% heat-inactivated FBS, 1× penicillin/streptomycin (Invitrogen) at 37° C., 10% CO2 until passage 6. Aliquots of the cells are frozen and cryopreserved in liquid nitrogen. Starting from a cryopreserved aliquot, cells are further expanded by sub-culturing cells at 1/3 ratio every week. Cells between passage 10 and 12 are routinely used in compound testing according to the following protocol.
Starting from the compound master stocks (all at 10 mM concentration in 100% DMSO) a 3-fold serial dilution is made in 96-well plates in 100% DMSO. Then, plates are further diluted 45-fold in M199 medium supplemented with 1% heat-inactivated FBS to obtain a intermediate work stock.
At day 1, RASFs are seeded in 96 well plates (flat bottom, tissue culture treated, Greiner) at a density of 3000 cells/well in complete synovial growth medium (Cell Applications). Day 5, the medium is completely removed from the cells, and replaced by 81 μL of M199 medium supplemented with 1% heat-inactivated FBS followed by addition of 10 μL compound out of the intermediate work stock. After an incubation period of 90 minutes, which allows the compounds to equilibrate and enter the cells, cells are stimulated with either TNF-α or ‘complex trigger’. TNF-α trigger is added in a volume of […] to obtain final concentration of 10 ng/mL. For that, TNF-α stock (PeproTech) at 10 μg/mL was diluted to 100 ng/mL TNF-α in M199 medium supplemented with 1% FBS. ‘Complex trigger’ mix is added in a volume of 20 μL to obtain a final concentration of 12.5%. For that, ‘complex trigger’ mix, is diluted to 80% with M199 medium supplemented with 1% FBS. […]

We go through 15 compounds from patent US20120010206A1, “IMIDAZOLOPYRIDINE COMPOUNDS USEFUL FOR THE TREATMENT OF DEGENERATIVE AND INFLAMMATORY DISEASES” (priority 2006, published 2012).

At TAK1-TAB1 fusion protein, `O=C1NCc2cc(-c3ccc(Nc4ccc(S(=O)(=O)N5CCOCC5)cc4)c4nccn34)ccc21` [Compound 16, 5-(8-(4-(morpholinosulfonyl)phenylamino)imidazo[1,2-a]pyridin-5-yl)isoindolin-1-one] gave an IC50 of 101 to 1000 nM. In addition, the EC50 in assay [1] was > 3000 nM.
For the compound `O=C(Nc1ccccc1)c1ccc(Nc2ccc(-c3ccc4c(c3)CNC4=O)n3ccnc23)cc1` [Compound 17, 4-(5-(1-oxoisoindolin-5-yl)imidazo[1,2-a]pyridin-8-ylamino)-N-phenylbenzamide], the IC50 at TAK1-TAB1 fusion protein lay in the range of 1000 to 3000 nM. Moreover, the EC50 in assay [1] was > 3000 nM.
Compound `CS(=O)(=O)c1ccc(Nc2ccc(-c3ccc4c(c3)CNC4=O)n3ccnc23)cc1` [Compound 18, 5-(8-(4-(methylsulfonyl)phenylamino)imi-dazo[1,2-a]pyridin-5-yl)isoindolin-1-one] returned an IC50 at TAK1-TAB1 fusion protein of 101 to 1000 nM. Moreover, in assay [1], the EC50 was > 3000 nM.
Taken in the same sequence, the figures for `CC(C)N1CCC(c2ccc(Nc3ccc(-c4ccc5c(c4)CNC5=O)n4ccnc34)cc2)CC1` [Compound 19, 5-(8-(4-(1-isopropyl-piperidin-4-yl)phenylamino)imidazo[1,2-a]pyridin-5-yl)isoindolin-1-one] were < 100 nM and 101 to 1000 nM.
The compound `CN(C)S(=O)(=O)c1ccc(Nc2ccc(-c3ccc4c(c3)CNC4=O)n3ccnc23)cc1` [Compound 20, N,N-dimethyl-4-(5-(1-oxoisoindolin-5-yl)imidazo[1,2-a]pyridin-8-ylamino)benzene sulfonamide] registered an IC50 against TAK1-TAB1 fusion protein of 101 to 1000 nM. In assay [1], this compound came in with an EC50 of 101 to 1000 nM.
The compound `O=C1NCc2cc(-c3ccc(Nc4ccc(S(=O)(=O)c5ccccc5)cc4)c4nccn34)ccc21` [Compound 21, 5-(8-(4-(phenylsulfonyl)phenylamino)imi-dazo[1,2-a]pyridin-5-yl)isoindolin-1-one] yielded an IC50 on TAK1-TAB1 fusion protein of 101 to 1000 nM. The compound also returned an EC50 in assay [1] of 101 to 1000 nM.
`CCN(CC)CCNS(=O)(=O)c1ccc(Nc2ccc(-c3ccc4c(c3)CNC4=O)n3ccnc23)cc1` [Compound 22, N-(2-(diethylamino)ethyl)-4-(5-(1-oxoisoindolin-5-yl)imidazo[1,2-a]pyridin-8-ylamino)benzene sulfonamide] displayed an IC50 against TAK1-TAB1 fusion protein of 101 to 1000 nM. In assay [1], this compound returned an EC50 of 1000 to 3000 nM.
The corresponding values for `CCN(CC)CCNC(=O)c1ccc(Nc2ccc(-c3ccc4c(c3)CNC4=O)n3ccnc23)cc1` [Compound 23, N-(2-(diethylamino)ethyl)-4-(5-(1-oxoisoindolin-5-yl)imidazo[1,2-a]pyridin-8-ylamino) benzamide] are < 100 nM and > 3000 nM.
Take `CNS(=O)(=O)c1ccc(Nc2ccc(-c3ccc4c(c3)CNC4=O)n3ccnc23)cc1` [Compound 24, N-methyl-4-(5-(1-oxoisoindolin-5-yl)imidazo[1,2-a]pyridin-8-ylamino)benzene sulfonamide]: the IC50 on TAK1-TAB1 fusion protein lay in the range of 101 to 1000 nM. The compound also came in with an EC50 in assay [1] of 1000 to 3000 nM.
In turn, `CN(C)c1ccc(CNS(=O)(=O)c2ccc(Nc3ccc(-c4ccc5c(c4)CNC5=O)n4ccnc34)cc2)cc1` [Compound 25, N-(4-(dimethylamino)benzyl)-4-(5-(1-oxoisoindolin-5-yl)imidazo[1,2-a]pyridin-8-ylamino)benzene sulfonamide] yielded an IC50 against TAK1-TAB1 fusion protein of 101 to 1000 nM. In assay [1], this compound showed an EC50 of 1000 to 3000 nM.
With `CC(C)N1CCN(c2ccc(Nc3ccc(-c4ccc5c(c4)CNC5=O)n4ccnc34)cc2F)CC1` [Compound 26, 5-(8-(3-fluoro-4-(4-isopropyl-piperazin-1-yl)phenylamino)imidazo[1,2-a]pyridin-5-yl)isoindolin-1-one], the IC50 on TAK1-TAB1 fusion protein is < 100 nM. Besides, in assay [1], the EC50 was > 3000 nM.
Turning to `CC(C)N1CCN(c2ccc(Nc3ccc(-c4ccc5c(c4)CNC5=O)n4ccnc34)cc2C(F)(F)F)CC1` [Compound 27, 5-(8-(4-(4-isopropylpiperazin-1-yl)-3-(trifluoromethyl)phenylamino)imi-dazo[1,2-a]pyridin-5-yl)isoindolin-1-one], the IC50 against TAK1-TAB1 fusion protein was 101 to 1000 nM. In addition, the EC50 in assay [1] is > 3000 nM.
The corresponding values for `CCN1CCN(c2ccc(Nc3ccc(-c4ccc5c(c4)CNC5=O)n4ccnc34)cc2Cl)CC1` [Compound 28, 5-(8-(3-chloro-4-(4-ethylpiperazin-1-yl)phenylamino)imidazo[1,2-a]pyridin-5-yl)isoindolin-1-one] are 101 to 1000 nM and > 3000 nM.
Turning to `CC(C)N1CCN(c2ccc(Nc3ccc(-c4ccc5c(c4)CNC5=O)n4ccnc34)cc2Cl)CC1` [Compound 29, 5-(8-(3-chloro-4-(4-isopropyl-piperazin-1-yl)phenylamino)imidazo[1,2-a]pyridin-5-yl)isoindolin-1-one], on TAK1-TAB1 fusion protein, the IC50 lay in the range of 101 to 1000 nM. Besides, the EC50 in assay [1] is > 3000 nM.
The corresponding values for `O=C1NCc2cc(-c3ccc(Nc4ccc(S(=O)(=O)NC5CCNC5)cc4)c4nccn34)ccc21` (stereo not drawn) [Compound 32, 4-(5-(1-oxoisoindolin-5-yl)imidazo[1,2-a]pyridin-8-ylamino)-N-(pyrrolidin-3-yl)benzene sulfonamide] are 101 to 1000 nM and > 3000 nM.
